The values that follow come from ChEMBL document CHEMBL1201862, “PubChem BioAssay data set” (2004).

SMILES strings stand for the structures.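 Interpolation was linear, between the two tested concentrations surrounding the appropriate level; five concentrations were tested over 48 hours in 96-well plates. GI50 = concentration required for 50% inhibition of growth.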 Calls of active or inactive are those of the source. No stated cut-off is given here; in the data, active = GI50 up to about 1.1 µM and inactive = higher. A value given as a limit tells only on which side of the number the result lay.

Holding throughout (experiment): NCI anticancer screen, dose series, 48 h
Experiment [1] relates to COLO 205.
For experiment [2], the system named is HT-29.
Experiment [3] has as its system IGROV-1.
Experiment [4] relates to KM12.
Experiment [5] deals with MCF7.
For experiment [6], the system named is MDA-MB-435.
Experiment [7] relates to MDA-N.
Experiment [8] relates to NCI-H23.
In experiment [9] the test system is OVCAR-3.
In experiment [10] the test system is RXF 393.
Experiment [11] has as its system SF-268.
For experiment [12], the system named is SK-MEL-28.
Experiment [13] relates to SK-MEL-2.
In experiment [14] the test system is SW-620.
Experiment [15] deals with T47D.
The subject of experiment [16] is CCRF-CEM.
Experiment [17] deals with K562.
The subject of experiment [18] is LOX IMVI.
Experiment [19] deals with MOLT-4.
For experiment [20], the system named is HL-60.

For `COc1cc(C2c3cc4c(cc3OC(NN=C(C)C)C2C)OCO4)cc(OC)c1O` (centres undefined), the GI50 in experiment [1] was 30.9 µM (inactive); in experiment [2], 36 µM (inactive); in experiment [3] it was 15.7 µM (inactive); in experiment [4] it was 21.2 µM (inactive); in experiment [5] it was 12.4 µM (inactive); in [6] it was 1.24 µM (inactive). The GI50 in experiment [7] is 3 µM (inactive); in experiment [8] it was 26.7 µM (inactive); in [9], 19.5 µM (inactive); in [10] it was 24.7 µM (inactive); in experiment [11], 31.5 µM (inactive); in experiment [12], 11.5 µM (inactive). Moreover, the GI50 is 8.61 µM (inactive) in experiment [13], 6.93 µM (inactive) in experiment [14] and 69.2 µM (inactive) in experiment [15].
On to `COc1cccc(/N=N/C(=N/NC(=O)c2ccc(C)cc2)c2ccc(N(CCC#N)CCC#N)cc2OC)c1`, for which the GI50 is > 100 µM (inactive) in experiment [16]; > 100 µM (inactive) in experiment [1]; 21.2 µM (inactive) in experiment [2]; > 100 µM (inactive) in experiment [3]; > 100 µM (inactive) in experiment [17]; > 100 µM (inactive) in experiment [4]. Further, the GI50 in experiment [18], in experiment [5], in experiment [6], in [7], in experiment [19] and in experiment [8] was > 100 µM (inactive) each time. Also, the GI50 in experiment [9], in experiment [10], in experiment [11], in experiment [12], in [13] and in experiment [14] was > 100 µM (inactive) in each case. For the same molecule, in experiment [15], the GI50 is > 100 µM (inactive).
For `CN(C)C(=S)N/N=C\C(=N/NC(=S)N(C)C)c1ccccc1`, the GI50 in [1] was 4.03 µM (inactive); in experiment [2] it was 5.16 µM (inactive); in [3], 3.7 µM (inactive); in experiment [17] it was 4.68 µM (inactive); in experiment [4] it was 15 µM (inactive); in experiment [18], 9.02 µM (inactive). The GI50 in experiment [5] was 4.03 µM (inactive); in experiment [6] it was 34.9 µM (inactive); in experiment [7], > 61.8 µM (inactive); in [19], > 100 µM (inactive); in [8], 9.46 µM (inactive); in [9] it was 2.7 µM (inactive). The GI50 in experiment [10] is 7.36 µM (inactive); in experiment [11], 4.14 µM (inactive); in experiment [12], 7.16 µM (inactive); in experiment [13], 3.96 µM (inactive); in experiment [14] it was 4.53 µM (inactive); in [15] it was 1.28 µM (inactive).
Regarding `CCC(=O)Nc1ncnc2ncn(C(=O)CC)c12`, the GI50 in [2], in experiment [3], in experiment [17], in experiment [4], in experiment [18] and in [5] was > 100 µM (inactive) each time. Also, the GI50 in experiment [6], in experiment [7], in [19], in [8], in experiment [9] and in experiment [10] was > 100 µM (inactive) in each case. Also, the GI50 in experiment [11], in [12], in [13], in [14] and in [15] was > 100 µM (inactive) in each case.
On to `Nc1nc(Cl)cc(Nc2cc(Cl)cc(Cl)c2)n1`, for which the GI50 is 28.5 µM (inactive) in experiment [16]; 22.4 µM (inactive) in experiment [1]; 17 µM (inactive) in experiment [2]; 18.7 µM (inactive) in [3]; 30.8 µM (inactive) in experiment [17]; 20.9 µM (inactive) in experiment [4]. The GI50 in experiment [18] is 18.1 µM (inactive); in experiment [5], 18.1 µM (inactive); in [6], 20.1 µM (inactive); in experiment [7], 23 µM (inactive); in [19], 22.3 µM (inactive); in experiment [8], 23.1 µM (inactive). Further, the GI50 in experiment [9] was 22.8 µM (inactive); in experiment [10], 21.1 µM (inactive); in experiment [11] it was 20.8 µM (inactive); in experiment [13], 18.7 µM (inactive); in experiment [14] it was 22.4 µM (inactive); in experiment [15] it was 37 µM (inactive).
Take `O=C(O)C1OC1C(=O)O` (centres undefined): the GI50 in [1], in experiment [2], in experiment [3], in [17], in [4] and in experiment [18] was > 100 µM (inactive) throughout. Further, the GI50 in experiment [5], in experiment [6], in experiment [7], in experiment [8], in [9] and in experiment [10] was > 100 µM (inactive) throughout. In addition, the GI50 in experiment [11], in experiment [12], in experiment [13], in experiment [14] and in [15] was > 100 µM (inactive) throughout.
As to `O=C1CCCSCCCC(=O)CCCSCCC1`, the GI50 in [16], in experiment [1], in experiment [20], in experiment [2], in [3] and in experiment [17] was > 100 µM (inactive) each time. Further, the GI50 in experiment [4], in [18], in experiment [5], in experiment [6], in experiment [7] and in [19] was > 100 µM (inactive) throughout. Further, the GI50 in experiment [8], in experiment [9], in [11], in experiment [12], in experiment [14] and in experiment [15] was > 100 µM (inactive) in each case.
In the case of `O=C1Nc2ccccc2/C1=N/NC(=S)N1CCCCCC1`, the GI50 is 1.03 µM (active) in experiment [1]; 1.3 µM (inactive) in experiment [2]; 0.187 µM (active) in [3]; 0.283 µM (active) in experiment [4]; 0.507 µM (active) in experiment [18]; 1.96 µM (inactive) in experiment [5]. The GI50 is 1.26 µM (inactive) in [6]; 2.8 µM (inactive) in experiment [7]; 0.366 µM (active) in experiment [19]; 1.21 µM (inactive) in experiment [8]; 0.163 µM (active) in experiment [9]; 0.644 µM (active) in experiment [10]. The GI50 is 0.322 µM (active) in [11]; 1.87 µM (inactive) in [12]; 1.66 µM (inactive) in experiment [13]; 0.594 µM (active) in experiment [14]; 3.78 µM (inactive) in experiment [15].
